We go through 13 compounds from US9822115B2, “Nitrogen containing compounds and their use as antibacterial agents” (WOCKHARDT LIMITED, priority 2014, dated 2017).

In brackets after ≈: the same amount, converted by molar mass. Like-named read-outs stand apart in the source and are kept apart here.

The target in assay [1] is T1, Class D beta-lactamase, A. baumannii NCTC 13301 (OXA 23) (Acinetobacter baumannii, UniProt Q9L4P2).
T1 construct: preincubated mixture of crude enzyme and the agents; endogenous in cells; host or cells: A. baumannii NCTC 13301
Description: Beta-lactamase enzyme inhibition (nitrocefin, crude enzyme). To be noted: Class D A. baumannii NCTC 13301 (OXA 23); read-out: Beta-lactamase enzyme inhibition IC50. It is filed as biochemical. Put shortly: (§1)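 Crude enzyme preincubated with inhibitor 10 min at 37 °C, then nitrocefin (100 uM) added for 5 min. Absorbance read at 485 nm; IC50 obtained from sigmoidal dose-response fit of absorbance versus concentration.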

Assay [2] has as its system E. coli NCTC 13353 (CTX-M15, OXA-1). In words: Antibacterial activity, MIC by agar dilution (CLSI). To be noted: E. Coli NCTC 13353 (CTX-M15, OXA-1). Type of assay: cell-based. Put shortly: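 CLSI agar dilution on Mueller Hinton agar containing doubling compound dilutions, inoculated at about 10^4 CFU/spot from fresh cultures. Plates were incubated 18 h at 37 °C in ambient air before growth scoring. MIC is reported in mcg/ml.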

Assay [3] deals with T2, Class A beta-lactamase, K. pneumoniae ATCC 700603 (SHV 18) (Klebsiella pneumoniae, UniProt P0AD64, E235K/G234A/R39S).
T2 construct: preincubated mixture of crude enzyme and the agents; endogenous in cells; host or cells: K. pneumoniae ATCC 700603
Description: biochemical. A digest of the protocol: as §1

Assay [4] relates to T3, Class C beta-lactamase, E. coli M50 (CMY/DHA).
T3 construct: no borders, tags or purification printed
Type of assay: biochemical. The conditions noted are these: read-out: Beta-lactamase enzyme inhibition IC50. Here is the method:
Determination of enzyme inhibition activity: Concentration of the inhibitor required to inhibit 50% of enzymatic activity was measured by adding a chromogenic substrate, Nitrocefin (100 uM, 5 min) to the preincubated mixture of crude enzyme and the agents (37° C., 10 min). Absorbance was measured at 485 nm by UV-spectrophotometer. The IC50 was calculated by plotting absorbance against concentration through Sigmoidal dose response curve using Graph Pad software.
The enzyme inhibition was expressed as IC50.

Assay [5] deals with K. pneumoniae H521 (KPC, SHV, TEM). Description: Antibacterial activity, MIC by agar dilution (CLSI). It is filed as cell-based. The conditions noted are these: Table 2, K. pneumoniae H521 (KPC, SHV, TEM). A digest of the protocol: (§2)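 Agar dilution per CLSI on Mueller Hinton agar with doubling compound dilutions, about 10^4 CFU/spot by multipoint inoculator. Plates incubated 16-20 h at 35±2° C in ambient air; procedure also gives 37° C for 18 h. MIC (mcg/ml) scored as growth or no growth.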

The subject of assay [6] is K. pneomoniae S48 (NDM, SHV, TEM). The assay is described as above. It is filed as cell-based, K. pneumoniae. The conditions noted are these: Table 2, K. pneomoniae S48 (NDM, SHV, TEM). A digest of the protocol:
as §2

The mark [7] stands for this setting: Escherichia coli, NCTC13353, Table 2, read-out: MIC.
The mark [8] stands for this setting: Klebsiella pneumoniae, read-out: MIC.

T2 sequence (P0AD64 22-286 R39S/G234A/E235K): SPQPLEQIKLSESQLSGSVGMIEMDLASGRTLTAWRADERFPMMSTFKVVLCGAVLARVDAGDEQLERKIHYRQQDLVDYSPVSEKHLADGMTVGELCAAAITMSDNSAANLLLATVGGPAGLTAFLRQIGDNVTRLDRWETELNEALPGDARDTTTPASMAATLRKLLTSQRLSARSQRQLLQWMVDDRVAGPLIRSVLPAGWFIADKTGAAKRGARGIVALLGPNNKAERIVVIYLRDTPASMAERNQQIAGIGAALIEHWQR
T1 sequence (Q9L4P2 18-273): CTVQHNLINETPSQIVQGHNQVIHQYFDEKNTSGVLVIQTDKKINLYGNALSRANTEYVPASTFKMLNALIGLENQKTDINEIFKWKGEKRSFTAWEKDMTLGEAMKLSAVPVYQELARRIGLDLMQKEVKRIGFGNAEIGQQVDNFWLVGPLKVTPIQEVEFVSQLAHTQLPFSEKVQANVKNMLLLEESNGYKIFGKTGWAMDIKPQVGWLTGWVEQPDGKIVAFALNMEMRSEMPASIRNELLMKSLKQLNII

As to `C[C@@H](N)COc1cccc(CC(=O)NNC(=O)[C@@H]2CC[C@@H]3CN2C(=O)N3OS(=O)(=O)O)c1` [Example 42, (2S,5R)-sulfuric acid mono-[2-(N′-{2-[3-((R)-2-amino-propoxy)-phenyl]-acetyl}-hydrazinocarbonyl)-7-oxo-1,6-diaza-bicyclo[3.2.1]oct-6-yl]ester], the IC50 came to 1230 nM in assay [1], 36 nM in assay [3] and 32 nM in assay [4]. Also, the MIC in assay [2] (setting [7]) turned out to be 1 µg/mL (≈ 2.12 µM); in assay [5] (setting [8]), 1 µg/mL (≈ 2.12 µM); in assay [6] (setting [8]), 0.5 µg/mL (≈ 1.06 µM).
`O=C(Cc1ccccc1OC[C@H]1CCCN1)NNC(=O)[C@@H]1CC[C@@H]2CN1C(=O)N2OS(=O)(=O)O` [Example 57, (2S,5R)-sulfuric acid mono-[2-(N′-{2-[2-((R)-pyrrolidin-2-ylmethoxy)-phenyl]-acetyl}-hydrazinocarbonyl)-7-oxo-1,6-diaza-bicyclo[3.2.1]oct-6-yl]ester]: the results for the IC50 in assay [1], in assay [3] and in assay [4] were 3290 nM, 125 nM and 105 nM, respectively. Further, the MIC is 2 µg/mL (≈ 4.02 µM) in assay [2] (setting [7]), 4 µg/mL (≈ 8.04 µM) in assay [5] (setting [8]) and 2 µg/mL (≈ 4.02 µM) in assay [6] (setting [8]).
For the compound `C[C@H](N)COc1ccc(CC(=O)NNC(=O)[C@@H]2CC[C@@H]3CN2C(=O)N3OS(=O)(=O)O)c(F)c1` [Example 44, (2S,5R)-sulfuric acid mono-[2-(N′-{2-[2-fluoro-4-((S)-2-amino-propoxy)-phenyl]-acetyl}-hydrazinocarbonyl)-7-oxo-1,6-diaza-bicyclo[3.2.1]oct-6-yl]ester], the figures for the half-inhibitory concentration (IC50) in assay [1], in assay [3] and in assay [4] were 561 nM, 58 nM and 31 nM, respectively. For the same compound, the MIC in assay [2] (setting [7]) amounted to 1 µg/mL (≈ 2.04 µM); in assay [5] (setting [8]) it was 2 µg/mL (≈ 4.09 µM); in assay [6] (setting [8]), 1 µg/mL (≈ 2.04 µM).
For `NCCOc1ccc(CC(=O)NNC(=O)[C@@H]2CC[C@@H]3CN2C(=O)N3OS(=O)(=O)O)cc1` [Example 30, (2S,5R)-sulfuric acid mono-[2-(N′-{2-[4-(2-amino-ethoxy)-phenyl]-acetyl}-hydrazinocarbonyl)-7-oxo-1,6-diaza-bicyclo[3.2.1]oct-6-yl]ester], the figures for the IC50 in assay [1], in assay [3] and in assay [4] were 451 nM, 7 nM and 36 nM, respectively. Further, the minimum inhibitory concentration (MIC) in assay [2] (setting [7]) is 0.5 µg/mL (≈ 1.09 µM); in assay [5] (setting [8]), 2 µg/mL (≈ 4.37 µM); in assay [6] (setting [8]), 0.5 µg/mL (≈ 1.09 µM).
Consider `CC(OC(=O)NCCOc1ccccc1CC(=O)NNC(=O)[C@@H]1CC[C@@H]2CN1C(=O)N2OS(=O)(=O)[O-])OC(=O)C(C)C.[Na+]` (stereo partly drawn) [Example 65, sodium salt of isobutyric acid 1-[2-(2-{2-oxo-2-[N′-((2S,5R)-6-sulphooxy-7-oxo-1,6-diaza-bicyclo[3.2.1]octane-2-carbonyl)-hydrazino]-ethyl}-phenoxy)-ethylcarbamoyloxy]-ethyl ester], for which the IC50 was determined as 537 nM in assay [1]; 8 nM in assay [3] (Class A K. pneumoniae ATCC 700603 (SHV 18), read-out: Beta-lactamase enzyme inhibition IC50); 5 nM in assay [4]. For the same compound, the MIC in assay [2] (Table 2), in assay [5] and in assay [6] was over 32 µg/mL each time.
As for `O=C(Cc1cccc(OC[C@@H]2CCNC2)c1)NNC(=O)[C@@H]1CC[C@@H]2CN1C(=O)N2OS(=O)(=O)O` [Example 60, (2S,5R)-sulfuric acid mono-[2-(N′-{2-[3-((R)-pyrrolidin-3-ylmethoxy)-phenyl]-acetyl}-hydrazinocarbonyl)-7-oxo-1,6-diaza-bicyclo[3.2.1]oct-6-yl]ester], the results for the 50% inhibitory concentration (IC50) in assay [1], in assay [3] and in assay [4] were 1280 nM, 45 nM and 41 nM, respectively. Also, the figures for the MIC in assay [2] (setting [7]), in assay [5] (setting [8]) and in assay [6] (setting [8]) were 1 µg/mL (≈ 2.01 µM), 2 µg/mL (≈ 4.02 µM) and 1 µg/mL (≈ 2.01 µM), respectively.
Turning to `C[C@H](N)COc1ccccc1CC(=O)NNC(=O)[C@@H]1CC[C@@H]2CN1C(=O)N2OS(=O)(=O)O` [Example 40, (2S,5R)-sulfuric acid mono-[2-(N′-{2-[2-((S)-2-amino-propoxy)-phenyl]-acetyl}-hydrazinocarbonyl)-7-oxo-1,6-diaza-bicyclo[3.2.1]oct-6-yl]ester], the half-maximal inhibitory concentration (IC50) worked out at 1570 nM in assay [1], 110 nM in assay [3] and 99 nM in assay [4]. For the same compound, the MIC in assay [2] (setting [7]), in assay [5] (setting [8]) and in assay [6] (setting [8]) was 2 µg/mL (≈ 4.24 µM) throughout.
Take `NCCCOc1cccc(CC(=O)NNC(=O)[C@@H]2CC[C@@H]3CN2C(=O)N3OS(=O)(=O)O)c1` [Example 35, (2S,5R)-sulfuric acid mono-[2-(N′-{2-[3-(3-amino-propoxy)-phenyl]-acetyl}-hydrazinocarbonyl)-7-oxo-1,6-diaza-bicyclo[3.2.1]oct-6-yl]ester]: the IC50 amounted to 1910 nM in assay [1], 712 nM in assay [3] and 38 nM in assay [4]. In addition, the results for the minimum inhibitory concentration (MIC) in assay [2] (setting [7]), in assay [5] (setting [8]) and in assay [6] (setting [8]) were 0.5 µg/mL (≈ 1.06 µM), 1 µg/mL (≈ 2.12 µM) and 0.5 µg/mL (≈ 1.06 µM), respectively.
Regarding `C[C@H](N)COc1ccc(CC(=O)NNC(=O)[C@@H]2CC[C@@H]3CN2C(=O)N3OS(=O)(=O)O)cc1` [Example 43, (2S,5R)-sulfuric acid mono-[2-(N′-{2-[4-((S)-2-amino-propoxy)-phenyl]-acetyl}-hydrazinocarbonyl)-7-oxo-1,6-diaza-bicyclo[3.2.1]oct-6-yl]ester], the figures for the half-maximal inhibitory concentration (IC50) in assay [1], in assay [3] and in assay [4] were 522 nM, 386 nM and 37 nM, respectively. Further, the MIC was found to be 0.5 µg/mL (≈ 1.06 µM) in assay [2] (setting [7]), 2 µg/mL (≈ 4.24 µM) in assay [5] (setting [8]) and 0.5 µg/mL (≈ 1.06 µM) in assay [6] (setting [8]).
Take `O=C(Cc1ccc(O[C@H]2CCNC2)cc1F)NNC(=O)[C@@H]1CC[C@@H]2CN1C(=O)N2OS(=O)(=O)O` [Example 47, (2S,5R)-sulfuric acid mono-[2-(N′-{2-[2-fluoro-4-((S)-pyrrolidin-3-oxy)-phenyl]-acetyl}-hydrazinocarbonyl)-7-oxo-1,6-diaza-bicyclo[3.2.1]oct-6-yl]ester]: the 50% inhibitory concentration (IC50) in assay [1] came to 842 nM; in assay [3], 15.1 nM; in assay [4], 77 nM. Also, the minimal inhibitory concentration (MIC) in assay [2] (setting [7]) worked out at 1 µg/mL (≈ 1.99 µM); in assay [5] (setting [8]), 2 µg/mL (≈ 3.99 µM); in assay [6] (setting [8]) it was 0.5 µg/mL (≈ 0.997 µM).
`CC(C)[C@H](N)COc1ccc(CC(=O)NNC(=O)[C@@H]2CC[C@@H]3CN2C(=O)N3OS(=O)(=O)O)cc1` [Example 54, (2S,5R)-sulfuric acid mono-[2-(N′-{2-[4-((S)-2-amino-3-methyl-butoxy)-phenyl]-acetyl}-hydrazinocarbonyl)-7-oxo-1,6-diaza-bicyclo[3.2.1]oct-6-yl]ester]: the IC50 worked out at 625 nM in assay [1], 37 nM in assay [3] and 40 nM in assay [4]. The MIC in assay [2] (setting [7]) amounted to 1 µg/mL (≈ 2 µM); in assay [5] (setting [8]), 8 µg/mL (≈ 16 µM); in assay [6] (setting [8]), 1 µg/mL (≈ 2 µM).
Regarding `O=C(Cc1cccc(OC[C@@H]2CCCN2)c1)NNC(=O)[C@@H]1CC[C@@H]2CN1C(=O)N2OS(=O)(=O)O` [Example 58, (2S,5R)-sulfuric acid mono-[2-(N′-{2-[3-((S)-pyrrolidin-2-ylmethoxy)-phenyl]-acetyl}-hydrazinocarbonyl)-7-oxo-1,6-diaza-bicyclo[3.2.1]oct-6-yl]ester], the IC50 worked out at 1470 nM in assay [1], 53 nM in assay [3] and 37 nM in assay [4]. Further, the values for the minimal inhibitory concentration (MIC) in assay [2] (setting [7]), in assay [5] (setting [8]) and in assay [6] (setting [8]) were 1 µg/mL (≈ 2.01 µM), 2 µg/mL (≈ 4.02 µM) and 0.5 µg/mL (≈ 1 µM), respectively.
Turning to `CC(C)[C@H](N)C(=O)Oc1ccc(CC(=O)NNC(=O)[C@@H]2CC[C@@H]3CN2C(=O)N3OS(=O)(=O)O)cc1` [Example 24, (S)-2-amino-3-methyl-butyric acid 4-{2-oxo-2-[N′-((2S,5R)-7-oxo-6-sulphooxy-1,6-diaza-bicyclo[3.2.1]octane-2-carbonyl)-hydrazino]ethyl}-phenyl ester], the IC50 was 151 nM in assay [1], 2 nM in assay [3] and 5 nM in assay [4]. In addition, the values for the minimal inhibitory concentration (MIC) in assay [2] (setting [7]), in assay [5] (setting [8]) and in assay [6] (setting [8]) were 1 µg/mL (≈ 1.95 µM), 4 µg/mL (≈ 7.79 µM) and 0.5 µg/mL (≈ 0.974 µM), respectively.
